Data on twelve molecules can be found in US20230265116A1, “DEGRADATION OF (EGFR) BY CONJUGATION OF EGFR INHIBITORS WITH E3 LIGASE LIGAND AND METHODS OF USE” (BEIGENE, LTD., priority 2020, published 2023).

In assay [1] the test system is EGFR Del19/T790M/C797S (H1975-clone #28). Briefly: EGFR degradation HTRF assay, H1975-clone #28 DTC cells. It is filed as cell-based. An outline of the steps: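 Cells were dosed on day 2 with an 8-point, 5-fold dilution series starting at 10 uM final and incubated 16h at 37° C. After lysis for 1 hour, HTRF antibodies were added overnight at room temperature and the plate was read at 665/620 nm. Degradation was normalised to DMSO wells and fitted for DC50 and Dmax.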

Assay [2] has as its target T1, EGFR L858R/T790M/C797S (BaF3-LTC cells) (Homo sapiens, UniProt P00533, C797S/L858R/T790M).
T1 construct: expressed in transfected cells; host or cells: BaF3
Briefly: EGFR degradation HTRF assay, BaF3-LTC cells. In kind it is cell-based. An outline of the steps: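 EGFR remaining after a 16 h, 37 °C exposure (8 doses, 5-fold steps from 10 uM final, 0.2% DMSO) was quantified by HTRF antibodies in cell lysate. Percent inhibition relative to DMSO control was fitted by four-parameter logistic to give DC50; Dmax denotes maximal degradation.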

Where [3] appears, read: H1975 # 28 DTC cells; EGFR degradation, IC50 (DC50) from curve fit; read-out: DC50(nM) H1975 # 28 DTC.
The mark [4] stands for this setting: H1975 # 28 DTC cells; maximum percentage of inhibition (degradation).
The mark [5] stands for this setting: BaF3-LTC cells; EGFR degradation, IC50 (DC50) from curve fit; read-out: DC50(nM) BaF3-LTC.
Where [6] appears, read: BaF3-LTC cells; maximum percentage of inhibition (degradation); read-out: Dmax (%) BaF3-LTC.

Read-outs that look alike come from different tables or passages of the source.

T1 sequence (P00533 25-1210 T790M/C797S/L858R): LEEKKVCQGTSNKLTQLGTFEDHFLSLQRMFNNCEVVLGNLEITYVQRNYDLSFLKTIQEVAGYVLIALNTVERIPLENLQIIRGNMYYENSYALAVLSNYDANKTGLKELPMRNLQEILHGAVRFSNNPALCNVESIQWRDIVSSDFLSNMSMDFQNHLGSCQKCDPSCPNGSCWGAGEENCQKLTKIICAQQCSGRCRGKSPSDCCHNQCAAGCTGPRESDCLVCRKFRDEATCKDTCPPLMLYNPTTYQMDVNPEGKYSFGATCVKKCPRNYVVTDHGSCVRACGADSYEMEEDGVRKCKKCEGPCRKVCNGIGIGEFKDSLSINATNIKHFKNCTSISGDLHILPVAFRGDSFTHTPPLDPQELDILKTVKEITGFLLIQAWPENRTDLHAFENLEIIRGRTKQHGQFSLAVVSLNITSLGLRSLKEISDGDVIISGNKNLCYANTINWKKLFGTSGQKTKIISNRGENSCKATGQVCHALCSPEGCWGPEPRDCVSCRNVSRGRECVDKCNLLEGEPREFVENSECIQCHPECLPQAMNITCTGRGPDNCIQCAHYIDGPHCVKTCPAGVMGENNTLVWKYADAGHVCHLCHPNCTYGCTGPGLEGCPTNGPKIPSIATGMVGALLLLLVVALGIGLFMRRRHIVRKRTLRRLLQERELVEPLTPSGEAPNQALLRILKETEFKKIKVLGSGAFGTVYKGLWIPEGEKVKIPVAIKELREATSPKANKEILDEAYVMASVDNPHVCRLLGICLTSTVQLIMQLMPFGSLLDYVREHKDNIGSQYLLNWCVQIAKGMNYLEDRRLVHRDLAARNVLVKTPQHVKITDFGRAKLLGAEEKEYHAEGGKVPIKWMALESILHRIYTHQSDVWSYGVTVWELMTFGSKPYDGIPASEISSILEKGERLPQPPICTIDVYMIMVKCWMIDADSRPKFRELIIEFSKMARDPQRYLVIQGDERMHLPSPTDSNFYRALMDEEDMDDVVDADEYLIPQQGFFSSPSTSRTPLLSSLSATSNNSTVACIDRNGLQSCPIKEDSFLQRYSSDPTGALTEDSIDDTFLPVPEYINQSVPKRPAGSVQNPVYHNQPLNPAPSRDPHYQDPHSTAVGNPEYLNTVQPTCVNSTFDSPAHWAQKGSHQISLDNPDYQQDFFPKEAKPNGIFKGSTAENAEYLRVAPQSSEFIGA

Take `CCc1cc(Nc2ncc(Br)c(Nc3ccc4nc(C)ccc4c3P(C)(C)=O)n2)c(OC2CC2)cc1N1CCC(N2CCN(CCc3cccc4c3n(C)c(=O)n4C3CCC(=O)NC3=O)CC2)CC1` (stereo not drawn) [Example 642, 3-(4-(2-(4-(1-(4-((5-bromo-4-((5-(dimethylphosphoryl)-2-methylquinolin-6-yl)amino)pyrimidin-2-yl)amino)-5-cyclopropoxy-2-ethylphenyl)piperidin-4-yl)piperazin-1-yl)ethyl)-3-methyl-2-oxo-2,3-dihydro-1H-benzo[d]imidazol-1-yl)piperidine-2,6-dione]: the DC50 in assay [1] (setting [3]) was 0.617 nM; in assay [2] (setting [5]) it was 1.42 nM. In addition, the “Dmax (%) H1975 # 28 DTC” value in assay [1] (setting [4]) is 76.78%. Further, in assay [2] (setting [6]), the Dmax turned out to be 93.7%.

Consider `CCOc1cc(N2CCC(N3CCN(CCc4cccc5c4oc(=O)n5C4CCC(=O)NC4=O)CC3)CC2)c(CC)cc1Nc1ncc(Br)c(Nc2ccc3c(=O)n(CC)ncc3c2P(C)(C)=O)n1` (stereo not drawn) [Example 644, 3-(7-(2-(4-(1-(4-((5-bromo-4-((5-(dimethylphosphoryl)-2-ethyl-1-oxo-1,2-dihydrophthalazin-6-yl)amino)pyrimidin-2-yl)amino)-5-ethoxy-2-ethylphenyl)piperidin-4-yl)piperazin-1-yl)ethyl)-2-oxobenzo[d]oxazol-3(2H)-yl)piperidine-2,6-dione], for which the figures for the DC50 in assay [1] (setting [3]) and in assay [2] (setting [5]) were 0.829 nM and 5.12 nM, respectively. Besides, the “Dmax (%) H1975 # 28 DTC” value in assay [1] (setting [4]) stood at 86.29%. Besides, the Dmax in assay [2] (setting [6]) is 92.6%.

Regarding `CCOc1cc(N2CCC(N3CCN(CC4CN(c5cccc6c5oc(=O)n6C5CCC(=O)NC5=O)C4)CC3)CC2)c(CC)cc1Nc1ncc(Br)c(Nc2ccc3c(=O)n(CC)ncc3c2P(C)(C)=O)n1` (stereo not drawn) [Example 645, 3-(7-(3-((4-(1-(4-((5-bromo-4-((5-(dimethylphosphoryl)-2-ethyl-1-oxo-1,2-dihydrophthalazin-6-yl)amino)pyrimidin-2-yl)amino)-5-ethoxy-2-ethylphenyl)piperidin-4-yl)piperazin-1-yl)methyl)azetidin-1-yl)-2-oxobenzo[d]oxazol-3(2H)-yl)piperidine-2,6-dione], the DC50 turned out to be 6.2 nM in assay [1] (setting [3]) and 22.7 nM in assay [2] (setting [5]). In addition, the “Dmax (%) H1975 # 28 DTC” value in assay [1] (setting [4]) is reported as 84.26%. In addition, the Dmax in assay [2] (setting [6]) was found to be 95.8%.

Take `CCc1ncc2c(P(C)(C)=O)c(Nc3nc(Nc4cc(CC)c(N5CCC(N6CCN(C(=O)Cc7ccc8c(c7)oc(=O)n8C7CCC(=O)NC7=O)CC6)CC5)cc4OC)ncc3Br)ccc2n1` (stereo not drawn) [Example 646, 3-(6-(2-(4-(1-(4-((5-bromo-4-((5-(dimethylphosphoryl)-2-ethylquinazolin-6-yl)amino)pyrimidin-2-yl)amino)-2-ethyl-5-methoxyphenyl)piperidin-4-yl)piperazin-1-yl)-2-oxoethyl)-2-oxobenzo[d]oxazol-3(2H)-yl)piperidine-2,6-dione]: the “Dmax (%) H1975 # 28 DTC” value in assay [1] (setting [4]) was found to be 74.64%. Moreover, the DC50 in assay [1] (read-out: DC50(nM) H1975 # 28 DTC; H1975 # 28 DTC cells; EGFR degradation, IC50 (DC50) from curve fit) was determined as 0.627 nM; in assay [2] (read-out: DC50(nM) BaF3-LTC; BaF3-LTC cells; EGFR degradation, IC50 (DC50) from curve fit) it was 6.2 nM. For the same molecule, the maximal degradation (Dmax) in assay [2] (read-out: Dmax (%) BaF3-LTC, BaF3-LTC cells; maximum percentage of inhibition (degradation)) was 94.5%.

Regarding `CCOc1cc(N2CCC(N3CCN(CCc4c(F)ccc5c4C(C)(C)C(=O)N5C4CCC(=O)NC4=O)CC3)CC2)c(CC)cc1Nc1ncc(Br)c(Nc2ccc3nc(CC)ccc3c2P(C)(C)=O)n1` (stereo not drawn) [Example 647, 3-(4-(2-(4-(1-(4-((5-bromo-4-((5-(dimethylphosphoryl)-2-ethylquinolin-6-yl)amino)pyrimidin-2-yl)amino)-5-ethoxy-2-ethylphenyl)piperidin-4-yl)piperazin-1-yl)ethyl)-5-fluoro-3,3-dimethyl-2-oxoindolin-1-yl)piperidine-2,6-dione], the values for the DC50 in assay [1] (setting [3]) and in assay [2] (setting [5]) were 2 nM and 13.2 nM, respectively. In addition, the “Dmax (%) H1975 # 28 DTC” value in assay [1] (setting [4]) is given as 66.66%. For the same molecule, the Dmax in assay [2] (setting [6]) came out at 93.2%.

On to `CCOc1cc(N2CCC(N3CCN(CCc4c(F)ccc5c4n(C)c(=O)n5C4CCC(=O)NC4=O)CC3)CC2)c(CC)cc1Nc1ncc(Br)c(Nc2ccc3nc(CC)ccc3c2P(C)(C)=O)n1` (stereo not drawn) [Example 648, 3-(4-(2-(4-(1-(4-((5-bromo-4-((5-(dimethylphosphoryl)-2-ethylquinolin-6-yl)amino)pyrimidin-2-yl)amino)-5-ethoxy-2-ethylphenyl)piperidin-4-yl)piperazin-1-yl)ethyl)-5-fluoro-3-methyl-2-oxo-2,3-dihydro-1H-benzo[d]imidazol-1-yl)piperidine-2,6-dione], for which the DC50 in assay [1] (setting [3]) came out at 4.01 nM; in assay [2] (setting [5]), 15.3 nM. Moreover, the “Dmax (%) H1975 # 28 DTC” value in assay [1] (setting [4]) came to 81.9%. In assay [2] (setting [6]), the Dmax was 95.8%.

Turning to `CCc1ccc2c(P(C)(C)=O)c(Nc3nc(Nc4cc(CC)c(N5CCC(N6CCN(C(=O)[C@@H]7CCN(c8cc(F)c([C@H]9CCC(=O)NC9=O)c(F)c8)C7)CC6)CC5)cc4OC(F)(F)F)ncc3Br)ccc2n1` [Example 649, (R)-3-(4-((R)-3-(4-(1-(4-((5-bromo-4-((5-(dimethylphosphoryl)-2-ethylquinolin-6-yl)amino)pyrimidin-2-yl)amino)-2-ethyl-5-(trifluoromethoxy)phenyl)piperidin-4-yl)piperazine-1-carbonyl)pyrrolidin-1-yl)-2,6-difluorophenyl)piperidine-2,6-dione], the 50% degradation concentration (DC50) was determined as 6.94 nM in assay [1] (setting [3]) and 31.8 nM in assay [2] (setting [5]). Besides, the “Dmax (%) H1975 # 28 DTC” value in assay [1] (setting [4]) was 75.95%. Also, the Dmax in assay [2] (setting [6]) was determined as 78.6%.

Turning to `CCc1ccc2c(P(C)(C)=O)c(Nc3nc(Nc4cc(CC)c(N5CCC(N6CCN(CC[C@H]7CCN(c8cc(F)c(C9CCC(=O)NC9=O)c(F)c8)C7)CC6)CC5)cc4OC)ncc3Br)ccc2n1` (stereo partly drawn) [Example 650, 3-(4-((S)-3-(2-(4-(1-(4-((5-bromo-4-((5-(dimethylphosphoryl)-2-ethylquinolin-6-yl)amino)pyrimidin-2-yl)amino)-2-ethyl-5-methoxyphenyl)piperidin-4-yl)piperazin-1-yl)ethyl)pyrrolidin-1-yl)-2,6-difluorophenyl)piperidine-2,6-dione], the DC50 in assay [1] (setting [3]) is 3.39 nM; in assay [2] (setting [5]), 16 nM. For the same molecule, the “Dmax (%) H1975 # 28 DTC” value in assay [1] (setting [4]) was determined as 59.93%. The Dmax in assay [2] (setting [6]) was 75%.

With `CCOc1cc(N2CCC(N3CCN(CCc4ccc5c(c4)oc(=O)n5C4CCC(=O)NC4=O)CC3)CC2)c(CC)cc1Nc1ncc(Br)c(Nc2ccc3nc(C)c(F)cc3c2P(C)(C)=O)n1` (stereo not drawn) [Example 651, 3-(6-(2-(4-(1-(4-((5-bromo-4-((5-(dimethylphosphoryl)-3-fluoro-2-methylquinolin-6-yl)amino)pyrimidin-2-yl)amino)-5-ethoxy-2-ethylphenyl)piperidin-4-yl)piperazin-1-yl)ethyl)-2-oxobenzo[d]oxazol-3(2H)-yl)piperidine-2,6-dione], the DC50 in assay [1] (setting [3]) stood at 1.17 nM; in assay [2] (setting [5]), 2.13 nM. For the same molecule, in assay [1] (setting [4]), the “Dmax (%) H1975 # 28 DTC” value was 79.33%. In addition, the Dmax in assay [2] (setting [6]) came to 87.7%.

On to `CCc1cc(Nc2ncc(Br)c(Nc3ccc4nc(NC5CC5)ccc4c3P(C)(C)=O)n2)c(OC)cc1N1CCC(N2CCN(C(=O)[C@@H]3CCN(c4cc(F)c([C@H]5CCC(=O)NC5=O)c(F)c4)C3)CC2)CC1` [Example 652, (R)-3-(4-((R)-3-(4-(1-(4-((5-bromo-4-((2-(cyclopropylamino)-5-(dimethylphosphoryl)quinolin-6-yl)amino)pyrimidin-2-yl)amino)-2-ethyl-5-methoxyphenyl)piperidin-4-yl)piperazine-1-carbonyl)pyrrolidin-1-yl)-2,6-difluorophenyl)piperidine-2,6-dione], for which the DC50 in assay [1] (setting [3]) was found to be 1.35 nM; in assay [2] (setting [5]), 5.23 nM. Further, the “Dmax (%) H1975 # 28 DTC” value in assay [1] (setting [4]) stood at 86.65%. Besides, the Dmax in assay [2] (setting [6]) was 81.1%.

`CCc1cc(Nc2ncc(Br)c(Nc3ccc4nc(NC5CC5)ccc4c3P(C)(C)=O)n2)c(OC)cc1N1CCC(N2CCN(CCc3cc(F)c([C@H]4CCC(=O)NC4=O)c(F)c3)CC2)CC1` [Example 653, (R)-3-(4-(2-(4-(1-(4-((5-bromo-4-((2-(cyclopropylamino)-5-(dimethylphosphoryl)quinolin-6-yl)amino)pyrimidin-2-yl)amino)-2-ethyl-5-methoxyphenyl)piperidin-4-yl)piperazin-1-yl)ethyl)-2,6-difluorophenyl)piperidine-2,6-dione]: the results for the DC50 in assay [1] (setting [3]) and in assay [2] (setting [5]) were 0.7 nM and 7.19 nM, respectively. Moreover, the “Dmax (%) H1975 # 28 DTC” value in assay [1] (setting [4]) amounted to 87.89%. The Dmax in assay [2] (setting [6]) is 87.7%.

As to `CCc1ccc2c(P(C)(C)=O)c(Nc3nc(Nc4cc(CC)c(N5CCC(N6CCN(CCc7ccc([C@H]8CCC(=O)NC8=O)cc7)CC6)CC5)cc4OC)ncc3Br)ccc2n1` [Example 654, (R)-3-(4-(2-(4-(1-(4-((5-bromo-4-((5-(dimethylphosphoryl)-2-ethylquinolin-6-yl)amino)pyrimidin-2-yl)amino)-2-ethyl-5-methoxyphenyl)piperidin-4-yl)piperazin-1-yl)ethyl)phenyl)piperidine-2,6-dione], the DC50 worked out at 2.08 nM in assay [1] (setting [3]) and 23.2 nM in assay [2] (setting [5]). Moreover, the “Dmax (%) H1975 # 28 DTC” value in assay [1] (setting [4]) turned out to be 66.53%. In assay [2] (setting [6]), the maximal degradation (Dmax) was 74.8%.
